Data reported in patent US8062996B2, “Plant glutamate receptors” (priority 1995, dated 2011).

Tests used:
ASN1 mRNA = ASN1 mRNA levels by Northern blot (relief of sucrose repression); type: in vivo, Arabidopsis; conditions: for relief of sucrose repression of ASN1 mRNA: 3% sucrose, dark 2 d; for induction of ASN1 mRNA: average of two Northern blot experiments, densitometry
Method: FIG. 12A. Arabidopsis seeds were grown on plates containing MS medium plates 3% (w/v) Suc under 16-h light/8-h dark cycle for 2-3 weeks. The plants were then transferred to media described below and grown in complete darkness for 2d. All samples containing 3% sucrose except for lane 2. MS was supplemented with kainate (lane 4:0.3 mM and lane 5: 0.03 mM), 0.05% (w/v) glutamate (lanes 6 and 7), and 10 μM DNQX (lanes 7 and 8). The expression of ASN1 and a control gene were detected by northern analyses on duplicate blots (under high-stringency conditions in 50% [v/v] formamide-solution), 20 μg of total RNA was used for each lane.
FIG. 12B. Quantitation of the Northern blot results in (A) by densitometry scan.
FIG. 12C. Average folds of induction in two Northern blot experiments.
The ability of a iGluR agonist to mimic the glutamate-stimulated expression of nitrogen assimilatory genes in Arabidopsis was tested using low concentrations of agonist KA and monitoring ASN1 mRNA levels as a measure of gene induction by KA.
ASN1 mRNA accumulates to high levels specifically in dark-treated plants (FIG. 12A, lane 2), and is repressed by light (FIG. 12A, lane 1) or sucrose (FIG. 12A, lane 3). […] ASN1 mRNA levels are determined by Northern blot analysis.

Arabidopsis [1] = experiment: Plant growth assay: root length on vertical tissue culture plates; type: in vivo
Method: Arabidopsis seeds were grown on MS+3% sucrose vertical tissue culture plates containing various amounts of kainate (FIG. 11A) or DNQX (FIG. 11B), with (white bars) or without (black bars) glutamate supplementation. The effects of each drug on plant growth were assayed by measuring root length after two week. The results were discussed in text.
The following assay may be utilized in order to screen drugs for their effects on plant growth mediated by the GluR. Arabidopsis seedlings expressing or overexpressing the GluR are treated with the potential agonist or antagonist. In this plant growth assay, Arabidopsis seeds are plated on tissue culture plates in MS Medium (Murashige and Skoog Salt Mixture-plant basic medium available from Gibco (BRL)). A dose-response curve is determined using various concentrations of the potential agonist or antagonist added to the medium. The plants are grown vertically in a growth chamber at 22° C. with a 16 hour light/8 hour dark cycle for two weeks. The effects of each herbicide on plant growth is assessed by measuring root length on vertical tissue culture plates.
A dose-response curve using various concentrations of KA or DNQX was performed and the effects of each drug on plant growth was determined by measuring root length on vertical tissue culture plates (see FIG. 11).

Arabidopsis [2] = experiment: Germination of Arabidopsis in the dark; type: in vivo
Description: FIG. 23. Effects of kainate of germination of Arabidopsis in the dark.
Kainate inhibition of germination in the dark is reversed by glutamate. Plants germinated in the dark on “normal” MS media (MS) as a positive control. Kainate, the iGluR agonist, causes a specific inhibition of germination of plants grown in MS media containing KA. The inhibition of germination by KA is reversed by the addition of glutamate to the media (MS+KA+Glu) (FIG. 23). Germination involves a light signal. Dark-grown seedlings are sown in the light and transferred to the dark. […] High doses of KA an agonist of iGluR in animals functions as a neurotoxin.
The effects of kainate on germination of Arabidopsis in the dark was determined.

[3] = test system: Arabidopsis wild-type seedlings; experiment: Survival of wild-type seedlings on high-dose kainate; type: in vivo; conditions: 12 mM kainate
Method: FIGS. 28A and 28B. Selection of Arabidopsis mutants resistant to the iGluR agonist Kainate. […] This is not unexpected as high doses of the iGluR agonist kainate function as a neurotoxin in animals. Arabidopsis mutants with putative defects in the KA binding site of iGluR were selected for the ability to grow in the presence of 12 mM kainate. […] Note the one KA-resistant plant is enlarged in FIG. 28B.
Arabidopsis mutants resistant to the iGluR agonist Kainate were selected. […] This is not unexpected as high doses of the iGluR agonist kainate function as a neurotoxin in animals. Arabidopsis mutants with putative defects in the KA binding site of iGluR were selected by selecting for mutants able to grow in the presence of 12 mM kainate. The ems mutagenized Arabidopsis M2 seedlings were sown on 12 mM kainate. Note the one KA-resistant plant is enlarged in FIG. 28B.

Row | Compound | relief of sucrose repression of ASN1 mRNA (ASN1 mRNA; 0.05% (w/v) glutamate) | induction of ASN1 mRNA (ASN1 mRNA) | root growth (Arabidopsis [1]; high concentrations of agonist or antagonist, without glutamate) | effect of high doses on root growth with glutamate supplementation (Arabidopsis [1]; high doses plus glutamate) | effect on plant growth (root length) (Arabidopsis [1]; low concentrations, 0 to 0.3 mM KA, two weeks) | germination of dark-grown seedlings (Arabidopsis [2]; kainate 200-400 uM) | inhibition of germination with glutamate supplementation (Arabidopsis [2]; kainate plus glutamate in growth media) | relief of sucrose repression of ASN1 mRNA (ASN1 mRNA; KA 300 uM and 30 μM) | lethality to wild-type seedlings [3]
1 | N[C@@H](CCC(=O)O)C(=O)O [glutamate] | able to partially relieve this sucrose repression | roughly 2 fold | – | – | – | – | – | – | –
2 | C=C(C)[C@H]1CN[C@H](C(=O)O)[C@H]1CC(=O)O [KA, kainic acid] | – | roughly 2 fold | reduction in root growth | at least partially reversed by glutamate supplementation | no adverse effects on plant growth | significant inhibition of germination | specifically reversed by the supplementation of glutamate | able to relieve the sucrose repression of ASN1 mRNA | kill wild-type seedlings
